The source made the active and inactive calls. The calls are words filed in the database; no cut-off is given here. Where a SMILES comes first, the peptide text is derived from it. [ ]: non-standard residue; d: D form. The star is where a group is joined. Palmitoyl = CCCCCCCCCCCCCCCC(=O)*; βAla = NCCC(=O)O
Tests used:
Type in all cases: functional, organism-based
Influenza A virus [1] = assay: Antiviral activity against oseltamivir-resistant Influenza A virus (H1N1) LN/1109
Influenza A virus [2] = assay: Antiviral activity against oseltamivir-resistant Influenza A virus (H1N1) TJ/15
Influenza A virus [3] = assay: Antiviral activity against oseltamivir-resistant Influenza A virus (H1N1) TJ/15 up to 100 uM

SMILES | EC50 (Influenza A virus [1]) | EC50 (Influenza A virus [2]) | inhibition (Influenza A virus [3])
CCCCCCCCCCCCCCCC(=O)NCCCC[C@H](NC(=O)CCNC(=O)[C@H](CCCCN)NC(=O)[C@H](CCCCN)NC(=O)[C@H](CCC(N)=O)NC(=O)[C@@H](NC(=O)[C@H](CCC(=O)O)NC(=O)[C@H](CCC(=O)O)NC(=O)[C@@H](NC(=O)[C@H](CCCCN)NC(=O)[C@H](CCCCN)NC(=O)[C@H](CCC(N)=O)NC(=O)[C@@H](NC(=O)[C@H](CCC(=O)O)NC(=O)[C@H](CCC(=O)O)NC(=O)[C@@H](NC(=O)[C@H](CCCCN)NC(=O)[C@H](CCCCN)NC(=O)[C@H](CCC(N)=O)NC(=O)[C@@H](NC(=O)[C@H](CCC(=O)O)NC(=O)[C@H](CCC(=O)O)NC(=O)[C@@H](NC(=O)[C@H](CCCCN)NC(=O)[C@H](CCCCN)NC(=O)[C@H](CCC(N)=O)NC(=O)[C@@H](NC(=O)[C@H](CCC(=O)O)NC(=O)[C@H](CCC(=O)O)NC(=O)[C@@H](NC(=O)[C@H](CCCCN)NC(=O)[C@H](CCCCN)NC(=O)[C@H](CCC(N)=O)NC(=O)[C@@H](NC(=O)[C@H](CCC(=O)O)NC(=O)[C@H](CCC(=O)O)NC(=O)[C@@H](NC(C)=O)[C@@H](C)CC)[C@@H](C)CC)[C@@H](C)CC)[C@@H](C)CC)[C@@H](C)CC)[C@@H](C)CC)[C@@H](C)CC)[C@@H](C)CC)[C@@H](C)CC)[C@@H](C)CC)C(N)=O (Ac-IEEIQKKIEEIQKKIEEIQKKIEEIQKKIEEIQKK[βAla]K(Palmitoyl)-NH2) | 4.36 µM | 3.03 µM | –
CCOC(=O)C1=C[C@@H](OC(CC)CC)[C@H](NC(C)=O)[C@@H](N)C1 [OSELTAMIVIR] | 21.7 µM | – | inactive
